Test results reported in the NIST ThermoML archive (doi:10.1021/je300958c).

Test: relative permittivity at zero frequency (dimensionless)
Conditions: 101.33 kPa, Liquid, impedance/gain phase analyzer

N#CCCCC#N [pentanedinitrile]
Conditions	relative permittivity at zero frequency
248.15 K	40.78
250.65 K	40.45
253.15 K	40.08
255.65 K	39.78
258.15 K	39.42
260.65 K	39.08
263.15 K	38.74
265.65 K	38.4
268.15 K	38.1
270.65 K	37.78
273.15 K	37.44
275.65 K	37.16
278.15 K	36.83
280.65 K	36.56
283.15 K	36.27
285.65 K	35.97
288.15 K	35.71
290.65 K	35.41
293.15 K	35.14
295.65 K	34.87
298.15 K	34.6
300.65 K	34.33
303.15 K	34.04
305.65 K	33.83
308.15 K	33.59
310.65 K	33.35
313.15 K	33.13
315.65 K	32.87
318.15 K	32.67
320.65 K	32.44
323.15 K	32.21

N#CCCCCCCC#N [octanedinitrile]
Conditions	relative permittivity at zero frequency
273.15 K	28.23
275.65 K	28
278.15 K	27.77
280.65 K	27.52
283.15 K	27.29
285.65 K	27.06
288.15 K	26.82
290.65 K	26.6
293.15 K	26.36
295.65 K	26.16
298.15 K	25.94
300.65 K	25.75
303.15 K	25.55
305.65 K	25.32
308.15 K	25.11
310.65 K	24.94
313.15 K	24.74
315.65 K	24.55
318.15 K	24.37
320.65 K	24.2
323.15 K	24
325.65 K	23.8
328.15 K	23.63
330.65 K	23.47
333.15 K	23.3
